Measurements as given in US11013698B2, “Combinations of LSD1 inhibitors for the treatment of hematological malignancies” (Oryzon Genomics S.A., priority 2016, dated 2021).

Legend:
Type in all cases: cell-based
[1] = test system: HL-60; test: Viability assay (96 hours), Alamar Blue; details: HL-60, 96 hours
Protocol: (§1) AML cell lines were maintained in RPMI 10% FBS medium at 37° C. in a humidified incubator with controlled 5% CO2 atmosphere. Cell freezing and thawing was performed following recommendation from ATCC. Genetic profiling of the cell lines used is available in table 2. Cells were seeded at the optimal density (to guarantee linear growth during the treatment), as previously determined (4000 cells/well, except 16000 cells/well in the case of KASUMI-1 cells), in 96-well plates with 50 μL of medium. Three wells were reserved for each experimental condition; medium-only and vehicle-treated controls were also added for background correction and normalization respectively. […] Alamar Blue® is a cell viability indicator that uses the natural reducing power of living cells to convert resazurin to the fluorescent molecule, resorufin^43.

[2] = test system: KASUMI-1; test: Viability assay (96 hours), Alamar Blue; details: KASUMI-1, 96 hours
Protocol: as §1

[3] = test system: MOLM-13; test: Viability assay (96 hours), Alamar Blue; details: MOLM-13, 96 hours
Protocol: as §1

[4] = test system: MV(4;11); test: Viability assay (96 hours), Alamar Blue; details: MV(4;11), 96 hours
Protocol: as §1

[5] = test system: OCI-AML3; test: Viability assay (96 hours), Alamar Blue; details: OCI-AML3, 96 hours
Protocol: as §1

[6] = test system: THP-1; test: Viability assay (96 hours), Alamar Blue; details: THP-1, 96 hours
Protocol: as §1

[7] = test system: MOLT-4 cells; test: Viability assay (10 days), Alamar Blue; details: MOLT4, 10 days
Protocol: MOLT4 cells were maintained in RPMI 10% FBS medium at 37° C. in a humidified incubator with controlled 5% CO2 atmosphere. Cell freezing and thawing was performed following recommendation from ATCC. Genetic profiling of the cell lines used is available in table 4.
Three wells were reserved for each experimental condition; medium-only and vehicle-treated controls were also added for background correction and normalization respectively. After seeding, 50 μL of medium containing 8 1:3 serial dilution of ORY-1001 were added to the cells (range 0.015-100 nM). Cells were then incubated for 6 days at 37° C. in a controlled 5% CO2 atmosphere. On the sixth day, 100 μL of medium with serial dilutions of ORY-1001 (as described previously) or vehicle were added to the cells. Medium without compound (100μ) was added to background control.
After 4 additional days of incubation, cell viability was evaluated using the Alamar Blue® staining as detailed in the section 1.1.2.

[8] = test system: MOLT-4 cells; test: Viability after shorter treatment (96 hours); details: MOLT-4, 96 hours treatment (data not shown)

SMILES: N[C@H]1CC[C@H](N[C@@H]2C[C@H]2c2ccccc2)CC1 [ORY-1001, (trans)-N1-((1R,2S)-2-phenylcyclopropyl)cyclohexane-1,4-diamine]
- Reduction of viability (compared to vehicle controls) ([1]; serial 1:3 dilution): greater than 20%
- EC50 (viability) ([1]; single agent): sub-nanomolar range
- Reduction of viability (compared to vehicle controls) ([2]; serial 1:3 dilution): greater than 20%
- EC50 (viability) ([2]; single agent): sub-nanomolar range
- Reduction of viability (compared to vehicle controls) ([3]; serial 1:3 dilution): greater than 20%
- EC50 (viability) ([3]; single agent): sub-nanomolar range
- Reduction of viability (compared to vehicle controls) ([4]; serial 1:3 dilution): greater than 20%
- EC50 (viability) ([4]; single agent): sub-nanomolar range
- Reduction of viability (compared to vehicle controls) ([5]; serial 1:3 dilution): greater than 20%
- EC50 (viability) ([5]; single agent): sub-nanomolar range
- Reduction of viability (compared to vehicle controls) ([6]; serial 1:3 dilution): greater than 20%
- EC50 (viability) ([6]; single agent): sub-nanomolar range
- cytotoxicity at 0.1 µM ([7]; Homo sapiens, MOLT-4, 240 h, highest ORY-1001 concentration 100 nM, read-out: Viability reduction (compared to vehicles)): > 20%
- EC50 (viability) [7]: sub-nanomolar range
- Effect on viability [8]: not affecting the viability
